# Reference: the supplement of paper PMC10307832
# Legend:
# Test in all cases: relative viability (nuclei count vs DMSO), 5 days (fraction); higher = more cells survive
# [1] = compound: COc1ccc(-c2ccc3c(N4CCOC[C@@H]4C)nc(N4CCOC[C@@H]4C)nc3n2)cc1CO [AZD8055] + COc1cc2c(Oc3ccc(NC(=O)C4(C(=O)Nc5ccc(F)cc5)CC4)cc3F)ccnc2cc1OCCCN1CCOCC1 [Foretinib] (partner 0.25 µM)
# Method in brief: (§1)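 Relative viability equals treated-well nuclei counts divided by vehicle-well nuclei counts. Counts came from 4× images of lung cancer cell lines grown in 1536-well plates for 5 days after pin-tool dosing on the day after seeding. Dosing used one drug alone or a fixed anchor-drug dose plus five library-drug doses (not always all listed) in √10 steps, and values are medians of duplicate plates.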
# [2] = compound: COc1ccc(-c2ccc3c(N4CCOC[C@@H]4C)nc(N4CCOC[C@@H]4C)nc3n2)cc1CO [AZD8055] + CS(=O)(=O)N1CCN(Cc2cc3nc(-c4cccc5[nH]ncc45)nc(N4CCOCC4)c3s2)CC1 [Pictilisib] (partner 1 µM)
# Method in brief: as §1
# [3] = compound: COc1ccc(-c2ccc3c(N4CCOC[C@@H]4C)nc(N4CCOC[C@@H]4C)nc3n2)cc1CO [AZD8055] + NC(=O)Nc1cc(-c2cccc(F)c2)sc1C(=O)N[C@H]1CCCNC1 [AZD7762] (partner 0.2 µM)
# Method in brief: as §1
# [4] = compound: COc1ccc(-c2ccc3c(N4CCOC[C@@H]4C)nc(N4CCOC[C@@H]4C)nc3n2)cc1CO [AZD8055] + O=C(CCCCCCC(=O)Nc1ccccc1)NO [Vorinostat] (partner 1 µM)
# Method in brief: as §1
Cell Line,relative viability ([1]; first compound 0.01 µM),relative viability ([1]; first compound 0.03162 µM),relative viability ([1]; first compound 0.1 µM),relative viability ([1]; first compound 0.3162 µM),relative viability ([1]; first compound 1 µM),relative viability ([2]; first compound 0.01 µM),relative viability ([2]; first compound 0.03162 µM),relative viability ([2]; first compound 0.1 µM),relative viability ([2]; first compound 0.3162 µM),relative viability ([2]; first compound 1 µM),relative viability ([3]; first compound 0.01 µM),relative viability ([3]; first compound 0.03162 µM),relative viability ([3]; first compound 0.1 µM),relative viability ([3]; first compound 0.3162 µM),relative viability ([3]; first compound 1 µM),relative viability ([4]; first compound 0.01 µM),relative viability ([4]; first compound 0.03162 µM),relative viability ([4]; first compound 0.1 µM),relative viability ([4]; first compound 0.3162 µM),relative viability ([4]; first compound 1 µM)
NCI-H1975,0.86,0.73,0.459,0.284,0.24,0.257,0.209,0.183,0.179,0.176,0.732,0.636,0.466,0.328,0.348,0.749,0.623,0.448,0.282,0.263
NCI-H1437,1.38,1.37,1.24,0.869,0.482,0.394,0.225,0.223,0.124,0.127,1.16,1.1,1.12,0.568,0.494,0.914,0.786,0.708,0.512,0.311
NCI-H1651,0.702,0.774,0.575,0.363,0.263,0.664,0.452,0.433,0.257,0.283,0.499,0.431,0.424,0.237,0.161,0.59,0.526,0.552,0.411,0.351
LCLC-103H,0.72,0.616,0.583,0.359,0.281,0.612,0.572,0.546,0.52,0.332,0.739,0.608,0.592,0.343,0.371,0.825,0.765,0.619,0.445,0.437
NCI-H1666,0.981,1,0.969,0.694,0.615,0.333,0.491,0.347,0.272,0.38,0.945,1.09,0.908,0.76,0.698,0.933,1.07,0.892,0.856,0.736
NCI-H1734,0.893,0.748,0.565,0.312,0.221,0.427,0.312,0.295,0.175,0.199,0.549,0.361,0.273,0.181,0.15,0.822,0.571,0.506,0.303,0.246
EPLC-272H,0.537,0.418,0.378,0.274,0.21,0.339,0.307,0.23,0.261,0.212,0.178,0.0952,0.243,0.109,0.127,0.331,0.401,0.343,0.144,0.261
BEN,0.533,0.463,0.389,0.284,0.284,0.541,0.391,0.34,0.316,0.254,0.684,0.408,0.41,0.403,0.357,0.614,0.443,0.442,0.327,0.297
